Tested on: Staphylococcus epidermidis biofilm
Assay: In-vitro biofilm microtitre plate assay, regrowth of biofilm after 1 minute treatment (growth index, GRI)
Format: cell-based
Settings: conclusion in words from normalised GRI of soap + clay + antibacterial combinations
Method: A biofilm based microtitre plate assay was used to determine the antibacterial efficacy of the test suspensions. The efficacy is measured in terms of an index called the growth index [GRI].
An axillary isolate of Staphylococcus epidermidis was used for all the studies. The isolate was maintained on sterile CYAgar [Blood agar base 2—42 gm.1^−1, dextrose—2 gm.1^−1, yeast extract—3 gm.1^−1, polysorbate 80—5 gm.1^−1]. 24 hrs prior to the study, the isolate was subcultured onto fresh sterile CYAgar and incubated at 37° C. […]
Standardization of biofilm in terms of its attachment to polystyrene wells was initially carried out by crystal violet staining and quantification of cell numbers. […]
A kinetic assay was performed to measure the regrowth of the biofilm in an iEMS reader using the Thermo Labsystems Ascent Software™. Readings were recorded at 37° C. for 24 hrs on an hourly basis at 620 nm.
Growth of bacteria is represented by 4 phases—lag phase, exponential phase, stationary phase and death phase. […] The cumulative effect of the antibacterial over the placebo effect can be determined by the product of the increase in the time taken to reach the mid log phase from the control, and the decrease in the cell density after 24 hrs of growth. […]

SMILES	synergistic benefit in antibacterial efficacy
O=C(Nc1ccc(Cl)cc1)Nc1ccc(Cl)c(Cl)c1 [TCC, 3,4,4′ trichlorocarbanilide]	do not provide similar synergistic benefit
Oc1cc(Cl)ccc1Oc1ccc(Cl)cc1Cl [TCN, 4,2′,4′-trichloro-2-hydroxy diphenyl ether]	do not provide similar synergistic benefit

From patent US20060111259A1, “Detergent composition” (Conopco Inc, d/b/a UNILEVER, priority 2004, published 2006)
